# Measurements published in PubChem BioAssay AID644 (The Scripps Research Institute Molecular Screening Center, 2007).
# The source made the active and inactive calls.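 Rule for the calls: active = IC50 at or below a set limit; inactive = IC50 above that limit.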
# Biological target: Rho-associated protein kinase 2 (Homo sapiens) (UniProt O75116)
# Assay: ROCK2 kinase inhibitor potency, dose response, biochemical, Kinase-Glo luminescence, S6 peptide, 1536-well (AID 644)
# Settings: recombinant ROCK2, S6 peptide, Kinase-Glo ATP luminescence
# Sequence of Rho-associated protein kinase 2 (Homo sapiens) (O75116 whole entry, looked up): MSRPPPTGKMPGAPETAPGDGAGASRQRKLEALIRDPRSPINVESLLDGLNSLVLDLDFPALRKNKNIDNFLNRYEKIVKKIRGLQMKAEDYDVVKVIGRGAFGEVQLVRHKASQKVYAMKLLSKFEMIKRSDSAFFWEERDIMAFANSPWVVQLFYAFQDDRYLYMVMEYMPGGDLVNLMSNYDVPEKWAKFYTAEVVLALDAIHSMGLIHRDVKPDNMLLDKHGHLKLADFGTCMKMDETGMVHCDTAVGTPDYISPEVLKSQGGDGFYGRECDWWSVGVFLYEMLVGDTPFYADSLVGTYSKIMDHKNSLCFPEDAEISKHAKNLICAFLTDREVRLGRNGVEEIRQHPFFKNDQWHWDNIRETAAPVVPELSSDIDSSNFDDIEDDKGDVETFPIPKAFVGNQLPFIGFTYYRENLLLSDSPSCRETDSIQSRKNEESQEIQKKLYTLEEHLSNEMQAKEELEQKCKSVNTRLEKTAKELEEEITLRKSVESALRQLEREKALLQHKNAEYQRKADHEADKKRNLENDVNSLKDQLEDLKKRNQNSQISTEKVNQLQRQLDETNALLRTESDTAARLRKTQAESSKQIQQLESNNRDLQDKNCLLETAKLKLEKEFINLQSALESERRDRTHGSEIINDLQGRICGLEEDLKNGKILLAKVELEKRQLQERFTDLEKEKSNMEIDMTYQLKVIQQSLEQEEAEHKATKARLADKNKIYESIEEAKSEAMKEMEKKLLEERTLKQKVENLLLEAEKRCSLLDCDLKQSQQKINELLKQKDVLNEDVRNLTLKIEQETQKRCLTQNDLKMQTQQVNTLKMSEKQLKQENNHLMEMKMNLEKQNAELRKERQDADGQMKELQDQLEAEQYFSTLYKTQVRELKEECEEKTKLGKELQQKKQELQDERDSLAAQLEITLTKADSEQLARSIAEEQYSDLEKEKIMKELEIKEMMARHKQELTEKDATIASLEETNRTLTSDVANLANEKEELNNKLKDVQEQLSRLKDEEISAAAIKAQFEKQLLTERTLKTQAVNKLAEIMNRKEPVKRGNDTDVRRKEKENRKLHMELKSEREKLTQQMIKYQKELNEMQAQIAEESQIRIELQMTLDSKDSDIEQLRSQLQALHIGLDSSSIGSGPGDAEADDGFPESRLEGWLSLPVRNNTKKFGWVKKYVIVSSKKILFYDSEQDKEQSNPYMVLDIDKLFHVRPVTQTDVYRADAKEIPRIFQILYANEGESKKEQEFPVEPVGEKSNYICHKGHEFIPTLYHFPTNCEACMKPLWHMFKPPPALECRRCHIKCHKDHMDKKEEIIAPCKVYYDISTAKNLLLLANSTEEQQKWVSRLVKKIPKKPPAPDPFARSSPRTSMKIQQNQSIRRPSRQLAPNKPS
row,SMILES,IC50
1,Cc1[nH]nc2c1C(c1ccc(-c3ccccc3C#N)o1)C(C#N)=C(N)O2 (stereo not drawn),> 19.9 µM (inactive)
2,CN(C(=O)c1cccc(N2C(=O)C3CC=CCC3C2=O)c1)C1CCCCC1 (stereo not drawn),> 59.6 µM (inactive)
3,CC1=NN(c2ccccc2)C(=O)C1,> 59.6 µM (inactive)
4,COc1cc(N=Cc2c(O)[nH]c3ccccc23)cc(OC)c1OC,inactive
5,CCOC(=O)C1=C(CSc2nc(-c3ccncc3)ccc2C#N)OC(N)=C(C#N)C1c1cccnc1 (stereo not drawn),> 19.9 µM (inactive)
6,O/N=C/c1c[nH]c2ccccc12,4.81 µM
7,CN1/C(=N\O)c2cccc3cccc1c23,> 19.9 µM (inactive)
8,COC(=O)c1cccc2c1-c1ccccc1/C2=N/O,> 19.9 µM (inactive)
